ChEMBL document CHEMBL1909046, “DrugMatrix in vitro pharmacology data”

Legend:
[1] = molecular target: Mitogen-activated protein kinase 3 (Homo sapiens, UniProt P27361); assay: DRUGMATRIX: Protein Serine/Threonine Kinase, ERK1 enzyme inhibition (substrate: Myelin Basic Protein); parameters: species or system Escherichia coli; conditions: Not Active = under 50% inhibition at 10 µM
[2] = molecular target: Epidermal growth factor receptor (Homo sapiens, UniProt P00533); assay: DRUGMATRIX: Protein Tyrosine Kinase, EGF Receptor enzyme inhibition (substrate: Poly(Glu:Tyr)); format: cell-based, Insect cells; conditions: Not Active = under 50% inhibition at 10 µM
[3] = molecular target: 5-hydroxytryptamine receptor 1B (Rattus norvegicus, UniProt P28564); format: cell membranes, Wistar, Cerebral cortex, Membrane; also: in other assays of this panel Not Active means under 50% inhibition at 10 µM
Sequence of 5-hydroxytryptamine receptor 1B (P28564 whole entry): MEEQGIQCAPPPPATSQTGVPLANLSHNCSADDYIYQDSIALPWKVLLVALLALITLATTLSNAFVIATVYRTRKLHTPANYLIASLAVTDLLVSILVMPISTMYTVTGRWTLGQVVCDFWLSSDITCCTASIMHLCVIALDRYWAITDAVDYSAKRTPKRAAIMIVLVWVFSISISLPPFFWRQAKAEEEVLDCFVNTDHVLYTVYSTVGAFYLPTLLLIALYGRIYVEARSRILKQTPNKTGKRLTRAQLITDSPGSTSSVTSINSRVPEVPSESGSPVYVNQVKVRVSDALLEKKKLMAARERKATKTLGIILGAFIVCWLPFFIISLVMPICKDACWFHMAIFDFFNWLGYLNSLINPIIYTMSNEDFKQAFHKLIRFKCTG

B2 bradykinin receptor = molecular target: T1, B2 bradykinin receptor (Homo sapiens, UniProt P30411); format: cell membranes, Membrane; conditions: chem-1; also: in other assays of this panel Not Active means under 50% inhibition at 10 µM
T1 sequence (P30411 whole entry): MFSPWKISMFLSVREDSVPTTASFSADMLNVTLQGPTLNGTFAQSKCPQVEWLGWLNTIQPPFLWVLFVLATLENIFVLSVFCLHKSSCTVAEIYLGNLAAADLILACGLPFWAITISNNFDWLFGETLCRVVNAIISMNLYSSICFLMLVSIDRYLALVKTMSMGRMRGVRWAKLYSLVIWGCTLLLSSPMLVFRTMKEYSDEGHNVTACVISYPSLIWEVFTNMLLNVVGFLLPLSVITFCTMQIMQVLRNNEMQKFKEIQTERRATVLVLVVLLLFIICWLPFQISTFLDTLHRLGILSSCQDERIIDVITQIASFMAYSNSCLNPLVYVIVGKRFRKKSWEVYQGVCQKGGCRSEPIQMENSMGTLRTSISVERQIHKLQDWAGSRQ

Cytochrome P450 1A2 = molecular target: T2, Cytochrome P450 1A2 (Homo sapiens, UniProt P05177); conditions: bti-tn-5b1-4; also: in other assays of this panel Not Active means under 50% inhibition at 10 µM
T2 sequence (P05177 whole entry): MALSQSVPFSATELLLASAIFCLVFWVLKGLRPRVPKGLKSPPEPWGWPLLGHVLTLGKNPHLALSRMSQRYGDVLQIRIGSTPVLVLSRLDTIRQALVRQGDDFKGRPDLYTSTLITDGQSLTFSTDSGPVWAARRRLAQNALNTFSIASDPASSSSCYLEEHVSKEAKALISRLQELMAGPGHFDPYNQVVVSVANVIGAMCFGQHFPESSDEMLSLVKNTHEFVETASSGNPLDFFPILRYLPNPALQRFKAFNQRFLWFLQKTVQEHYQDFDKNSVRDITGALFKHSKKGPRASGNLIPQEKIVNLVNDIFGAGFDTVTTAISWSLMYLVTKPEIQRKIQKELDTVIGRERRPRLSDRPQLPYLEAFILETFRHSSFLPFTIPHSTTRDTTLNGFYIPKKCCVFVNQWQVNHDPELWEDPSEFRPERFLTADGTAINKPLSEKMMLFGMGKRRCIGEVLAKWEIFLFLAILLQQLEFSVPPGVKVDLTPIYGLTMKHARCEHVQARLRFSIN

[4] = DRUGMATRIX: Nicotinic Acetylcholine radioligand binding (ligand: [125I] Epibatidine); format: cell membranes, Membrane; conditions: imr-32; Not Active = under 50% inhibition at 10 µM
[5] = DRUGMATRIX: GABAA, Flunitrazepam, Central radioligand binding (ligand: [3H] Flunitrazepam); format: cell membranes, Rattus norvegicus, Wistar, Brain, Membrane; conditions: Not Active = under 50% inhibition at 10 µM

Sequence of Mitogen-activated protein kinase 3 (P27361 whole entry): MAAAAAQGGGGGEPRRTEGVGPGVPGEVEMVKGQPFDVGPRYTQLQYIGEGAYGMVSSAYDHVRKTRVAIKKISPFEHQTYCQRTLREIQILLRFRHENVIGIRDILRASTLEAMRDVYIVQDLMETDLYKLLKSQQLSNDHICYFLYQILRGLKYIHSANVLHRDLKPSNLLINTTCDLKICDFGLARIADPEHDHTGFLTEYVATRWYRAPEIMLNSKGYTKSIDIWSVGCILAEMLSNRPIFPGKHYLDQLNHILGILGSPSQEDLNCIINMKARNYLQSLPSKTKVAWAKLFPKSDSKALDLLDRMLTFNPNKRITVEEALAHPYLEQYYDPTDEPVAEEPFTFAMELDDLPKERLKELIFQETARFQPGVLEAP

Molecule	IC50 [1]	IC50 ([2]; insect cells)	IC50 [3]	IC50 (B2 bradykinin receptor)	IC50 (Cytochrome P450 1A2)	Ki (Cytochrome P450 1A2)	IC50 [4]	Ki [4]	IC50 [5]	Ki [5]	IC50 ([5]; read-out: IC50) [nM]	Ki ([5]; read-out: Ki) [nM]	IC50 ([2]; read-out: IC50) [nM]	IC50 ([3]; read-out: IC50) [nM]	Ki ([3]; read-out: Ki) [nM]	Ki [1]	Ki ([2]; insect cells)	Ki [3]	Ki (B2 bradykinin receptor)
CC(c1cc2ccccc2s1)N(O)C(N)=O (centres undefined) [ZILEUTON]	Not Active	Not Active	Not Active	Not Active	Not Active	Not Active	Not Active	Not Active	Not Active	Not Active									
O=C1Nc2ccc(Cl)cc2C(c2ccccc2Cl)=NC1O (centres undefined) [LORAZEPAM]	Not Active	Not Active	Not Active	Not Active	Not Active	Not Active	Not Active	Not Active			6.35	5.18							
CCN(CC)CCOc1ccc(/C(=C(/Cl)c2ccccc2)c2ccccc2)cc1 [ENCLOMIPHENE]	Not Active		Not Active	Not Active	Not Active	Not Active							1050						
CC(C)Cc1ccc([C@@H](C)C(=O)O)cc1 [(R)-IBUPROPHEN]	Not Active	Not Active	Not Active	Not Active	Not Active	Not Active	Not Active	Not Active	Not Active	Not Active									
O=C(Nc1ccc(Br)cc1)c1cc(Br)cc(Br)c1O [TRIBROMSALAN]	Not Active		Not Active	Not Active			Not Active	Not Active	Not Active	Not Active			2990						
CN(C/C=C/C#CC(C)(C)C)Cc1cccc2ccccc12 [TERBINAFINE]	Not Active	Not Active	Not Active	Not Active	Not Active	Not Active	Not Active	Not Active	Not Active	Not Active									
Cn1c(=O)c2nc[nH]c2n(C)c1=O.O [THEOPHYLLINE]	Not Active	Not Active	Not Active	Not Active	Not Active	Not Active	Not Active	Not Active	Not Active	Not Active									
CC(C)NCC(O)c1ccc(NS(C)(=O)=O)cc1 (centres undefined) [SOTALOL]	Not Active	Not Active	Not Active	Not Active	Not Active	Not Active	Not Active	Not Active	Not Active	Not Active									
CO[C@@H]1[C@@H](OC)[C@H](C)[C@@](O)(CC(=O)O)O[C@H]1[C@H](C)[C@H]1O[C@@]2(CC[C@@](C)([C@H]3CC[C@@](C)([C@@H]4O[C@@H]([C@H]5O[C@](C)(O)[C@H](C)C[C@@H]5C)C[C@@H]4O[C@@H]4C[C@H](OC)[C@@H](OC)[C@H](C)O4)O3)O2)C[C@H](O)[C@H]1C [MADURAMICIN ACID]	Not Active	Not Active		Not Active	Not Active	Not Active	Not Active	Not Active	Not Active	Not Active				2.98	1.35				
SODIUM ORTHOVANAD	Not Active	Not Active	Not Active	Not Active	Not Active	Not Active	Not Active	Not Active	Not Active	Not Active						Not Active	Not Active	Not Active	Not Active
Cc1cccc(C)c1OCC(C)N (centres undefined) [MEXILETINE]	Not Active	Not Active	Not Active	Not Active	Not Active	Not Active	Not Active	Not Active	Not Active	Not Active									
CC(C)NCC(O)c1ccc(O)c(O)c1 (centres undefined) [ISOPROTERENOL]	Not Active	Not Active	Not Active	Not Active	Not Active	Not Active	Not Active	Not Active	Not Active	Not Active									
NC1CCN(c2nc3c(cc2F)c(=O)c(C(=O)O)cn3-c2ccc(F)cc2F)C1 (centres undefined) [TOSUFLOXACIN]	Not Active	Not Active	Not Active	Not Active	Not Active	Not Active	Not Active	Not Active	Not Active	Not Active									
COc1ccc(CCN(C)CCCC(C#N)(c2ccc(OC)c(OC)c2)C(C)C)cc1OC (centres undefined)	Not Active	Not Active	Not Active	Not Active	Not Active	Not Active	Not Active	Not Active	Not Active	Not Active									
